Assay results published in ChEMBL document CHEMBL5346908, “Recent advances of mitochondrial complex I inhibitors for cancer therapy: Current status and future perspectives” (Eur J Med Chem, 2023).
pEC50, pIC50, pKi: −log10 of the molar value. In brackets after ≈: the same amount, converted by molar mass. Each block holds one compound with its values, some of them ahead of it.

Legend:
[1] = Antiproliferative activity against mouse TA3/Ha cells assessed as reduction in cell growth; type: functional, cell-based
[2] = Inhibition of mitochondrial respiration in Sprague-Dawley rat liver; type: functional, tissue-based
L1210 = test: Antitumor activity against mouse L1210 cells xenografted in […] model assessed as prolongation of life span relative to control; type: functional
NCI-H460 = test: Antiproliferative activity against human NCI-H460 cells assessed as reduction in cell viability incubated for 48 hrs by cell titer glow assay; type: functional, cell-based; conditions: NCI-H460, 48 h
Melanoma cell line = test: Antiproliferative activity against human melanoma cells assessed as reduction in cell viability incubated for 72 hrs by CellTiter-Fluor reagent based fluorescence analysis; type: functional
KG-1 = test: Antiproliferative activity against human KG-1 cells assessed as cell growth inhibition incubated for 72 hrs by MTT assay; type: functional, cell-based; conditions: KG-1, 72 h
THP-1 = test: Antiproliferative activity against human THP-1 cells assessed as cell growth inhibition incubated for 72 hrs by MTT assay; type: functional, cell-based; conditions: THP-1, 72 h
HL-60 = test: Antiproliferative activity against human HL-60 cells assessed as cell growth inhibition incubated for 72 hrs by MTT assay; type: functional, cell-based; conditions: HL-60, 72 h
[3] = target: T1, Receptor tyrosine-protein kinase erbB-2 (Homo sapiens, UniProt P04626); test: Inhibition of ERBB2 (unknown origin) in human NCI-H1975 cells assessed as increase in mitochondrial ROS level incubated for 48 hrs by Western blot analysis
T1 sequence (P04626 whole entry): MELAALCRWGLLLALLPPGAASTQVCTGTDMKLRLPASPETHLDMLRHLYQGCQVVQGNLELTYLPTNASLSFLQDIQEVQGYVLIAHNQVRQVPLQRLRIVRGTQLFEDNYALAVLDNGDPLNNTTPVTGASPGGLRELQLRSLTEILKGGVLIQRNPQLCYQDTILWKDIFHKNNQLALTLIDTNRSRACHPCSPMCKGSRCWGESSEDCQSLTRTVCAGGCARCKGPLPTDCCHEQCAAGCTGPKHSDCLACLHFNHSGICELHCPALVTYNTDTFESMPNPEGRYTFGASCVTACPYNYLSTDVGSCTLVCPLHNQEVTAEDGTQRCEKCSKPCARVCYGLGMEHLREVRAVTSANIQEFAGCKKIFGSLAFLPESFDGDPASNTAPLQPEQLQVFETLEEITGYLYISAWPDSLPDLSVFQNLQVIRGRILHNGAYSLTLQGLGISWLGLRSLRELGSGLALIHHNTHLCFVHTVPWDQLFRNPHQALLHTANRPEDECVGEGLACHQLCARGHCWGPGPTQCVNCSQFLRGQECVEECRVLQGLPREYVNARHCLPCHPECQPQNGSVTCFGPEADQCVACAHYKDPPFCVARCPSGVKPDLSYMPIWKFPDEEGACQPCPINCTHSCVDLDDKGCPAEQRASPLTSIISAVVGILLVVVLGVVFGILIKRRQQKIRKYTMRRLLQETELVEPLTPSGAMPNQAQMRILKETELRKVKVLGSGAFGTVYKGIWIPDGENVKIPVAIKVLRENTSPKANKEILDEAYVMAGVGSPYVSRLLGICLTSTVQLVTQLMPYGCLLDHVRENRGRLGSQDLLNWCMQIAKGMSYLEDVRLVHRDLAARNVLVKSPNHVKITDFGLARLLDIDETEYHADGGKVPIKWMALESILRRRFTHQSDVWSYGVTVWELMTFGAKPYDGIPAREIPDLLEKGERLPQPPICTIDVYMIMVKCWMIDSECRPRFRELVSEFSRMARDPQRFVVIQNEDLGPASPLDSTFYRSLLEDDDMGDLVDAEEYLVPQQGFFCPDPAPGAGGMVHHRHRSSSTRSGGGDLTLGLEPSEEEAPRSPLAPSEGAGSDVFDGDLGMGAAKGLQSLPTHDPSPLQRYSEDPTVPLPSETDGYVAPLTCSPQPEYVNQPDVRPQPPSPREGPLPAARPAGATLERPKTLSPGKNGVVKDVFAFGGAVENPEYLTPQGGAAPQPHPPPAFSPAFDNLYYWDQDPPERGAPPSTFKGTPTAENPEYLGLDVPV

[4] = target: T1, Receptor tyrosine-protein kinase erbB-2; test: Inhibition of ERBB2 (unknown origin)
[5] = Oral bioavailability in human; type: ADME, organism-based; conditions: in vivo
[6] = Antiproliferative activity against mouse L929 cells assessed as inhibition of cell growth incubated for 5 days by MTT assay; type: toxicity, cell-based
HepG2 = test: Cytotoxicity against human HepG2 cells assessed as reduction cell proliferation incubated for 24 hrs by MTT assay; type: functional, cell-based; conditions: HepG2, 24 h
HT-29 [7] = test: Inhibition of colony formation of human HT-29 cells incubated for 7 days in absence of glucose by crystal violet staining based analysis; type: functional, cell-based; conditions: HT-29, 168 h
HEK293 = test: Cytotoxicity against human HEK293 cells assessed as reduction in cell proliferation incubated for 24 hrs by MTT assay; type: functional, cell-based; conditions: HEK293, 24 h
HT-29 [8] = test: Inhibition of colony formation of human HT-29 cells assessed as reduction in colonies incubated for 7 days by crystal violet staining based analysis; type: functional, cell-based; conditions: HT-29, 168 h
[9] = Cytotoxicity against Trichoplusia ni BTI-TN-5B1-4 cells assessed as reduction cell proliferation incubated for 24 hrs by MTT assay; type: toxicity, cell-based
MCF7 = test: Antiproliferative activity against human MCF7 cells assessed as reduction in cell viability incubated for 72 hrs by MTT assay; type: functional, cell-based; conditions: MCF7, 72 h
MDA-MB-231 [10] = test: Antiproliferative activity against human MDA-MB-231 cells assessed as reduction in cell viability incubated for 72 hrs by cell-titer glo assay; type: functional, cell-based; conditions: MDA-MB-231, 72 h
[11] = Inhibition of NADH-ubiquinone oxidoreductase (unknown origin) binding to ETC complex 1; design: species or system Homo sapiens
MDA-MB-435 = test: Antiproliferative activity against human MDA-MB-435 cells assessed as reduction in cell viability incubated for 72 hrs by cell-titer glo assay; type: functional, cell-based; conditions: MDA-MB-435, 72 h
HCT-116 [12] = test: Antiproliferative activity against human HCT-116 cells assessed as reduction in cell viability; type: functional, cell-based
NSCLC [13] = test: Antitumor activity against human NSCLC cells xenografted in orthotopic lung tumor mouse model assessed as reduction in tumor growth incubated for 8 weeks; type: functional; conditions: 1344 h
NSCLC [14] = test: Antiproliferative activity against human NSCLC cells assessed as reduction in cell viability incubated for 72 hrs by MTT assay; type: functional, cell-based
NCI-H157 = test: Antiproliferative activity against human NCI-H157 assessed as reduction in cell growth incubated for 72 hrs by Cell-titer glo assay; type: functional, cell-based; conditions: NCI-H157, 72 h
NCI-H1693 = test: Antiproliferative activity against human NCI-H1693 assessed as reduction in cell growth incubated for 72 hrs by Cell-titer glo assay; type: functional, cell-based; conditions: NCI-H1693, 72 h
NCI-H1581 = test: Antiproliferative activity against human NCI-H1581 cells assessed as reduction in cell growth incubated for 72 hrs by Cell-titer glo assay; type: functional, cell-based; conditions: NCI-H1581, 72 h
[15] = Antiproliferative activity against human DFCI024 cells assessed as reduction in cell growth incubated for 72 hrs by Cell-titer glo assay; type: functional, cell-based; conditions: DFCI024, 72 h
4T1 [16] = test: Antitumor activity against mouse 4T1 cells xenografted in BALB/c mouse model assessed as peak tumor level at 100 mg/kg, ip measured after 4 hrs; type: functional
4T1 [17] = test: Antitumor activity against mouse 4T1 cells xenografted in BALB/c mouse model assessed as peak plasma level at 100 mg/kg, ip; type: functional
A-375 = test: Antiproliferative activity against human A-375 cells assessed as inhibition of cell growth measured after 72 hrs by CCK8 assay; type: functional, cell-based; conditions: A-375, 72 h
[18] = Half life in BALB/c mouse plasma at 100 mg/kg, ip; type: ADME, organism-based
[19] = Half life in tumor of BALB/c mouse model xenografted with 4T1 cells at 100 mg/kg, ip measured after 4 hrs; type: ADME, organism-based
HCT-116 [20] = test: Inhibition of mitochondrial respiration in human HCT-116 cells assessed as oxygen consumption rate incubated for 1 hr by Seahorse XF24 extracellular flux analyzer; type: functional, cell-based; conditions: HCT-116, 1 h
MDA-MB-231 [21] = test: Inhibition of mitochondrial respiration in human MDA-MB-231 cells assessed as oxygen consumption rate incubated for 1 hr by Seahorse XF24 extracellular flux analyzer; type: functional, cell-based; conditions: MDA-MB-231, 1 h

Structure (SMILES): CC1(C)C=CC(=O)c2c(O)c3c(c(O)c21)CC=CC3
- pIC50 [1]: 4.89

Structure (SMILES): CCCCCCCCCC[C@H](O)[C@H]1CC[C@H]([C@H]2CC[C@H]([C@H](O)CCCCCCCCCC[C@@H](O)CC3=C[C@H](C)OC3=O)O2)O1 [REL-SQUAMOCIN-G]
- pIC50 [2]: 8.02
- Activity (L1210): 38%

Structure (SMILES): Cc1nc(-c2nc(-c3ccc(OC(F)(F)F)cc3)no2)nn1Cc1cccc(N2CCC(S(C)(=O)=O)CC2)c1
- pEC50 (KG-1): 8.52
- pEC50 (THP-1): 8.52
- pEC50 (HL-60): 8.52

Structure (SMILES): FC(F)(F)c1ccc(/C=C/c2nc(COc3ccc(CCCCn4ccnn4)cc3)co2)cc1 [MUBRITINIB]
- pIC50 [3]: 7.10
- pIC50 [4]: 7.29

Structure (SMILES): C=C(C)[C@H]1Cc2c(ccc3c2O[C@@H]2COc4cc(OC)c(OC)cc4[C@@H]2C3=O)O1 [ROTENONE]
- pIC50 [2]: 7.71
- IC50 at 5 days [6]: 16.1 nM

Structure (SMILES): C/C=C(\C)[C@H](O)[C@H](C)/C=C(C)/C=C/C/C(C)=C/Cc1nc(OC)c(OC)c(O)c1C [PIERICIDIN A]
- pIC50 (HepG2): 3.63
- pIC50 (HT-29 [7]): 8.11
- pIC50 (HEK293): 3.64
- pIC50 (HT-29 [8]): 8.19
- IC50 at 24 h [9]: 61 nM

Structure (SMILES): CCCCCC[C@H](O)CCC[C@H](O)[C@H]1CC[C@H]([C@H]2CC[C@H]([C@H](O)CCCCCCCCCCCCC3=C[C@H](C)OC3=O)O2)O1 [SQUAMOCIN]
- IC50 (MCF7): 0.8 ng/mL (≈ 1.28 nM)

Structure (SMILES): O=C(NCCCCCCCCCC[P+](c1ccccc1)(c1ccccc1)c1ccccc1)c1nn(Cc2ccc(Cl)cc2Cl)c2ccccc12
- ED50 (NSCLC [13]): 7.5 µmol/kg
- pIC50 (NSCLC [14]): 6.13

Structure (SMILES): CCCCCn1c(=O)[nH]c2cc(C(=O)N3CCN(c4ccc([N+](=O)[O-])cc4)CC3)ccc2c1=O
- pIC50 (NCI-H157): 6.70
- pIC50 (NCI-H1693): 6.70
- pIC50 (NCI-H1581): 6.70
- pIC50 [15]: 6.70

Structure (SMILES): O[C@@H](CNC[C@H](O)[C@H]1CCc2cc(F)ccc2O1)[C@@H]1CCc2cc(F)ccc2O1
- pIC50 (HCT-116 [20]): 6.05
- pIC50 (MDA-MB-231 [21]): 5.68

The next lines start with results.

- pEC50 (NCI-H460): 8.52
- pIC50 (Melanoma cell line): 8.70
Structure (SMILES): Cc1cc(-c2nc(-c3ccc(OC(F)(F)F)cc3)no2)nn1Cc1ccnc(N2CCN(C3CC3)CC2)c1

- bioavailability [5]: 72.9%
Structure (SMILES): N=C(NC(=N)N1CCCC1)Nc1ccc(OC(F)(F)F)cc1 [LIXUMISTAT]

- pIC50 (MDA-MB-231 [10]): 5.16
- pIC50 (MDA-MB-435): 4.92
Structure (SMILES): Cc1ccc(Sc2cccc3[nH]c4nc(N)nc(N)c4c23)cc1
- pKi [11]: 6.08

- pIC50 (HCT-116 [12]): 6.35
Structure (SMILES): Cc1cc(OCc2nnc(SC3CCCC3)n2-c2cccnc2)ccc1-c1ccc(S(C)(=O)=O)cc1
- IC50 at 5 days [6]: 1.3 nM

- pIC50 (A-375): 4.00
- half-life [18]: 1.1 h
- half-life [19]: 1.2 h
Structure (SMILES): CCCCc1ccc(N)c(C)c1
- Activity (4T1 [16]): 11 µM
- Activity (4T1 [17]): 25 µM
